Eight molecules from ChEMBL document CHEMBL5113478, “7-Azaindole, 2,7-diazaindole, and 1H-pyrazole as core structures for novel anticancer agents with potential chemosensitizing properties” (Eur J Med Chem, 2022) can be followed below.

The source made the active and inactive calls. The rule behind the calls is not given here.

In experiment [1] the test system is HT-29. As to the kind of experiment: Antiproliferative activity against human HT-29 cells assessed as […] cell proliferation at 10 uM incubated for 48 hrs by WST-1 assay relative to control. The experiment is classed as functional.
In experiment [2] the test system is Jurkat. As to the kind of experiment: Antiproliferative activity against human Jurkat cells assessed as […] cell proliferation at 10 uM incubated for 48 hrs in presence of 2 uM of CDDP by WST-1 assay relative to control. The class given is functional.
For experiment [3], the system named is A549. As to the kind of experiment: Antiproliferative activity against human A549 cells assessed as […] cell proliferation at 10 uM incubated for 48 hrs in presence of 15 uM of CDDP by WST-1 assay relative to control. The experiment is classed as functional.
The test system of experiment [4] is MCF7. As to the kind of experiment: Antiproliferative activity against human MCF7 cells assessed as […] cell proliferation at 10 uM incubated for 48 hrs by WST-1 assay relative to control. The class given is functional.
The subject of experiment [5] is HeLa. As to the kind of experiment: Antiproliferative activity against human HeLa cells assessed as […] cell proliferation at 10 uM incubated for 48 hrs by WST-1 assay relative to control. The experiment is classed as functional.
The test system of experiment [6] is A2780. As to the kind of experiment: Antiproliferative activity against human A2780 cells assessed as […] cell proliferation at 10 uM incubated for 48 hrs in presence of 2 uM of CDDP by WST-1 assay relative to control. The class given is functional. For orientation: Formazan colour is commonly taken as a measure of viable cells.
Experiment [7] deals with HeLa. As to the kind of experiment: Antiproliferative activity against human HeLa cells assessed as […] cell proliferation at 10 uM incubated for 48 hrs in presence of 15 uM of CDDP by WST-1 assay relative to control. The class given is functional.
Experiment [8] concerns A2780. As to the kind of experiment: Antiproliferative activity against human A2780 cells assessed as […] cell proliferation at 10 uM incubated for 48 hrs by WST-1 assay relative to control. The experiment is classed as functional.
Experiment [9] relates to Jurkat. As to the kind of experiment: Antiproliferative activity against human Jurkat cells assessed as […] cell proliferation at 10 uM incubated for 48 hrs by WST-1 assay relative to control. The class given is functional.
In experiment [10] the test system is HT-29. As to the kind of experiment: Antiproliferative activity against human HT-29 cells assessed as […] cell proliferation at 10 uM incubated for 48 hrs in presence of 15 uM of CDDP by WST-1 assay relative to control. The class given is functional.
The subject of a further experiment is 1321N1. As to the kind of experiment: Cytotoxicity against human 1321N1 cells assessed as reduction in cell viability at 15 uM incubated for 48 hrs by MTT assay. The experiment is classed as functional, cell-based.
The test system of experiment [11] is SAOS-2. As to the kind of experiment: Antiproliferative activity against human SAOS-2 cells assessed as […] cell proliferation at 10 uM incubated for 48 hrs in presence of 15 uM of CDDP by WST-1 assay relative to control. The class given is functional.
Experiment [12] deals with PANC-1. As to the kind of experiment: Antiproliferative activity against human PANC-1 cells assessed as […] cell proliferation at 10 uM incubated for 48 hrs by WST-1 assay relative to control. The class given is functional.
The test system of experiment [13] is MOLT-4. As to the kind of experiment: Antiproliferative activity against human MOLT-4 cells assessed as […] cell proliferation at 10 uM incubated for 48 hrs in presence of 2 uM of CDDP by WST-1 assay relative to control. The experiment is classed as functional.
Experiment [14] deals with PANC-1. As to the kind of experiment: Antiproliferative activity against human PANC-1 cells assessed as […] cell proliferation at 10 uM incubated for 48 hrs in presence of 15 uM of CDDP by WST-1 assay relative to control. The experiment is classed as functional.
The test system of experiment [15] is MCF7. As to the kind of experiment: Antiproliferative activity against human MCF7 cells assessed as […] cell proliferation at 10 uM incubated for 48 hrs in presence of 10 uM of CDDP by WST-1 assay relative to control. The class given is functional.
The test system of experiment [16] is A549. As to the kind of experiment: Antiproliferative activity against human A549 cells assessed as […] cell proliferation at 10 uM incubated for 48 hrs by WST-1 assay relative to control. The class given is functional.
Experiment [17] deals with SAOS-2. As to the kind of experiment: Antiproliferative activity against human SAOS-2 cells assessed as […] cell proliferation at 10 uM incubated for 48 hrs by WST-1 assay relative to control. The experiment is classed as functional.
For experiment [18], the system named is MOLT-4. As to the kind of experiment: Antiproliferative activity against human MOLT-4 cells assessed as […] cell proliferation at 10 uM incubated for 48 hrs by WST-1 assay relative to control. The experiment is classed as functional.
In a further experiment the test system is GBM. As to the kind of experiment: Cytotoxicity against patient-derived human GBM cells assessed as reduction in cell viability at 15 uM incubated for 48 hrs by MTT assay. The experiment is classed as functional.

For the molecule `CCN(CC)c1ccc(CNC(=O)c2c[nH]c3ncc(-c4ccc(S(=O)(=O)C(C)C)cc4)cc23)cc1`, in the experiment on HT-29 [1], the “Cell viability relative to control” value was determined as 64%. Moreover, the Activity with Jurkat [2] is recorded as 58%; in the experiment on A549 [3] it was 58%; in the experiment with MCF7 [4], 64%; with HeLa [5], 64%; in the experiment with A2780 [6], 58%; with HeLa [7], 58%. The Activity in the experiment with A2780 [8] is given as 64%; in the experiment on Jurkat [9] it was 64%; in the experiment on HT-29 [10] it was 58%; with SAOS-2 [11], 58%; with PANC-1 [12], 64%; in the experiment with MOLT-4 [13] it was 58%. In addition, the Activity in the experiment on PANC-1 [14] came out at 58%; in the experiment with MCF7 [15], 58%; in the experiment on A549 [16], 64%; with SAOS-2 [17] it was 64%; in the experiment on MOLT-4 [18], 64%. Further, the result in the experiment on 1321N1 and in the experiment with GBM was Active.

For `CC(C)S(=O)(=O)c1ccc(-c2cnc3[nH]c(C(=O)Nc4ccccc4)cc3c2)cc1`, the “Cell viability relative to control” value with HT-29 [1] is given as 103%. Also, the Activity in the experiment with Jurkat [2] was 65%; in the experiment on A549 [3], 65%; in the experiment with MCF7 [4] it was 103%; in the experiment with HeLa [5] it was 103%; in the experiment with A2780 [6], 65%; in the experiment on HeLa [7] it was 65%. The Activity with A2780 [8] is recorded as 103%; in the experiment with Jurkat [9], 103%; in the experiment with HT-29 [10] it was 65%; with SAOS-2 [11], 65%; with PANC-1 [12], 103%; in the experiment with MOLT-4 [13], 65%. Further, the Activity in the experiment on PANC-1 [14] turned out to be 65%; in the experiment with MCF7 [15], 65%; in the experiment with A549 [16], 103%; in the experiment on SAOS-2 [17], 103%; with MOLT-4 [18], 103%.

On to `CC(C)S(=O)(=O)c1ccc(-c2cnc3[nH]nc(C(=O)N4CCc5ccccc5C4)c3c2)cc1`, for which the “Cell viability relative to control” value in the experiment on HT-29 [1] came out at 96%. In addition, the Activity was 61% with Jurkat [2]; 61% in the experiment with A549 [3]; 96% in the experiment with MCF7 [4]; 96% with HeLa [5]; 61% in the experiment with A2780 [6]; 61% with HeLa [7]. Further, the Activity is reported as 96% in the experiment on A2780 [8]; 96% in the experiment with Jurkat [9]; 61% in the experiment with HT-29 [10]; 61% in the experiment on SAOS-2 [11]; 96% with PANC-1 [12]; 61% with MOLT-4 [13]. Also, the Activity in the experiment on PANC-1 [14] was determined as 61%; in the experiment with MCF7 [15] it was 61%; in the experiment with A549 [16], 96%; with SAOS-2 [17], 96%; in the experiment with MOLT-4 [18] it was 96%.

Take `CC(C)S(=O)(=O)c1ccc(-c2cc(C(=O)Nc3ccccc3)n[nH]2)cc1`: in the experiment with HT-29 [1], the “Cell viability relative to control” value was 107%. Further, the Activity with Jurkat [2] amounted to 70%; in the experiment on A549 [3] it was 70%; with MCF7 [4] it was 107%; in the experiment on HeLa [5], 107%; in the experiment with A2780 [6] it was 70%; with HeLa [7], 70%. Further, the Activity in the experiment with A2780 [8] was determined as 107%; in the experiment on Jurkat [9] it was 107%; in the experiment on HT-29 [10] it was 70%; in the experiment on SAOS-2 [11] it was 70%; in the experiment with PANC-1 [12], 107%; in the experiment on MOLT-4 [13], 70%. The Activity in the experiment on PANC-1 [14] amounted to 70%; in the experiment on MCF7 [15], 70%; in the experiment with A549 [16] it was 107%; in the experiment on SAOS-2 [17], 107%; with MOLT-4 [18], 107%.

Regarding `CS(=O)(=O)c1ccc(-c2cnc(N)c(C(=O)Nc3ccccc3)n2)cc1`, in the experiment with HT-29 [1], the “Cell viability relative to control” value was 66%. The Activity in the experiment with Jurkat [2] came out at 16%; in the experiment on A549 [3], 16%; with MCF7 [4], 66%; in the experiment with HeLa [5] it was 66%; with A2780 [6] it was 16%; in the experiment with HeLa [7], 16%. Also, the Activity in the experiment with A2780 [8] was found to be 66%; in the experiment on Jurkat [9], 66%; with HT-29 [10], 16%; with SAOS-2 [11], 16%; with PANC-1 [12], 66%; with MOLT-4 [13] it was 16%. Further, the Activity is 16% with PANC-1 [14]; 16% in the experiment on MCF7 [15]; 66% with A549 [16]; 66% in the experiment on SAOS-2 [17]; 66% in the experiment with MOLT-4 [18].

As for `CC(C)S(=O)(=O)c1ccc(-c2cnc3[nH]c(C(=O)N4CCC(c5ccccc5)CC4)cc3c2)cc1`, in the experiment on HT-29 [1], the “Cell viability relative to control” value amounted to 92%. For the same molecule, the Activity in the experiment on Jurkat [2] is recorded as 64%; in the experiment with A549 [3], 64%; in the experiment with MCF7 [4] it was 92%; in the experiment on HeLa [5], 92%; in the experiment with A2780 [6], 64%; with HeLa [7] it was 64%. In addition, the Activity with A2780 [8] came to 92%; with Jurkat [9] it was 92%; with HT-29 [10], 64%; in the experiment on SAOS-2 [11], 64%; with PANC-1 [12], 92%; in the experiment with MOLT-4 [13], 64%. Further, the Activity in the experiment with PANC-1 [14] is given as 64%; with MCF7 [15] it was 64%; with A549 [16], 92%; in the experiment on SAOS-2 [17], 92%; in the experiment on MOLT-4 [18] it was 92%.

With `CC(C)S(=O)(=O)c1ccc(-c2cnc3[nH]cc(C(=O)NCc4ccccc4)c3c2)cc1`, the “Cell viability relative to control” value in the experiment on HT-29 [1] came out at 83%. Further, the Activity is listed as 65% with Jurkat [2]; 65% in the experiment on A549 [3]; 83% in the experiment with MCF7 [4]; 83% in the experiment with HeLa [5]; 65% in the experiment with A2780 [6]; 65% in the experiment on HeLa [7]. Besides, the Activity came out at 83% in the experiment on A2780 [8]; 83% with Jurkat [9]; 65% in the experiment with HT-29 [10]; 65% with SAOS-2 [11]; 83% in the experiment with PANC-1 [12]; 65% in the experiment on MOLT-4 [13]. Moreover, the Activity with PANC-1 [14] worked out at 65%; with MCF7 [15], 65%; in the experiment on A549 [16], 83%; in the experiment on SAOS-2 [17], 83%; in the experiment on MOLT-4 [18], 83%.

For `CCN1CCN(C2CCN(C(=O)c3cc4cc(-c5ccc(S(C)(=O)=O)cc5)cnc4[nH]3)CC2)CC1`, in the experiment with HT-29 [1], the “Cell viability relative to control” value is reported as 96%. For the same molecule, the Activity in the experiment with Jurkat [2] is listed as 67%; with A549 [3] it was 67%; in the experiment on MCF7 [4] it was 96%; with HeLa [5], 96%; in the experiment on A2780 [6] it was 67%; with HeLa [7], 67%. Besides, the Activity in the experiment on A2780 [8] was found to be 96%; with Jurkat [9], 96%; in the experiment with HT-29 [10] it was 67%; with SAOS-2 [11], 67%; with PANC-1 [12], 96%; in the experiment with MOLT-4 [13] it was 67%. Also, the Activity came to 67% in the experiment on PANC-1 [14]; 67% in the experiment with MCF7 [15]; 96% in the experiment with A549 [16]; 96% in the experiment with SAOS-2 [17]; 96% in the experiment with MOLT-4 [18].
